PMC8041284, “Tunable Methacrylamides for Covalent Ligand Directed Release Chemistry” (Journal of the American Chemical Society, 2021)
Where a SMILES comes first, the peptide text is derived from it. Bridges are numbered along the chain shown (N, C = ends).

target: BTK (Homo sapiens, UniProt Q06187); test: biochemical; conditions: read-out: BTK inhibition (%)
Sequence (Q06187 402-655 limits assumed): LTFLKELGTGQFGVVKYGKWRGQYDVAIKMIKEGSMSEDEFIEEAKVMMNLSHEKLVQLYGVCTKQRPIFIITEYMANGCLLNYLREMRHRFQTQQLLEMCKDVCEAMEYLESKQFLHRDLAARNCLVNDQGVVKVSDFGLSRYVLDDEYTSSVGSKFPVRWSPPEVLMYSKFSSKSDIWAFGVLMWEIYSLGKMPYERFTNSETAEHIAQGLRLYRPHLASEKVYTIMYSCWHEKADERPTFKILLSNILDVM

Compound	inhibition at 10 µM [%]
CCN1C[C@]2(COC)CC[C@H](OC)[C@]34C1[C@H]([C@H](OC)[C@H]23)[C@@]1(OC(C)=O)C[C@H](OC)[C@@]2(O)C[C@@H]4[C@@H]1[C@H]2OC(=O)c1ccc(OC)cc1 [PCM-0216304]	-17
CC(C)=CCC[C@H](C(=O)O)[C@@H]1CC[C@]2(C)C3=C(CC[C@@]12C)[C@@]1(C)CCC(=O)C(C)(C)[C@@H]1CC3 [PCM-0216312]	-6.2
CC(=O)O[C@@H]1[C@H]2[C@@H](OC(=O)Cc3ccccc3)[C@@H](C)C[C@]2(OC(C)=O)C(=O)/C(C)=C/[C@@H]2[C@H](CC[C@]13CO3)C2(C)C [PCM-0216313]	-27.8

same assay, conditions: read-out: BTK inhibition (%), 0.75 uM BTK, […] probe 3l, 15 min preincubation

Compound	inhibition at 10 µM [%]
NC(=O)c1ccc[n+]([C@@H]2O[C@H](COP(=O)([O-])O)[C@@H](O)[C@H]2O)c1 [PCM-0216232]	-6.8
Cc1[nH]c(/C=C2\C(=O)Nc3ccc(F)cc32)c(C)c1C(=O)NCCN1CCCC1 [PCM-0216233]	18.7
CNC(=O)c1cnn(-c2nc(N)c3ncn([C@@H]4O[C@H](CO)[C@@H](O)[C@H]4O)c3n2)c1 [PCM-0216236]	5.4
C[C@H]1C[C@H]2[C@@H]3C[C@H](F)C4=CC(=O)C=C[C@]4(C)[C@@]3(F)[C@@H](O)C[C@]2(C)[C@@]1(O)C(=O)CO [PCM-0216237]	9
O=C(O)COc1nn(Cc2ccccc2)c2ccccc12 [PCM-0216238]	-3.1
COC(=O)C1=CC[C@@]23CC[C@@H]([C@@](C)(/C=C/C=C(\C)C(=O)O)OC2=O)[C@@]3(OC(C)=O)CC1 [PCM-0216239]	2.1
CC(=O)Oc1ccc(C(=C2CCCCC2)c2ccc(OC(C)=O)cc2)cc1 [PCM-0216241]	-3.9
CCCOC(=O)c1ccc(O)cc1 [PCM-0216242]	-6.2
CC1(C)S[C@@H]2[C@H](NC(=O)[C@H](N)c3ccccc3)C(=O)N2[C@H]1C(=O)OCOC(=O)[C@@H]1N2C(=O)C[C@H]2S(=O)(=O)C1(C)C [PCM-0216243]	-11.6
CCOc1ccc(Cc2cc([C@]34OC[C@](CO)(O3)[C@@H](O)[C@H](O)[C@H]4O)ccc2Cl)cc1 [PCM-0216244]	7.7
O=C(c1ccc(Oc2ccccc2)cc1Cl)c1c[nH]c2ncnc(N[C@@H]3CC[C@@H](CO)OC3)c12 [PCM-0216245]	116
C[C@@H](C(=O)Nc1ccc(Cl)cc1)C1CCC(c2ccnc3ccc(F)cc23)CC1 (stereo partly shown) [PCM-0216246]	27
Cc1ccc(-c2n[nH]c3c2C(c2cccc(O)c2)N(c2ccc(C(=O)O)cc2)C3=O)cc1 (stereo not shown) [PCM-0216247]	41.7
CCCCC(=O)OCC(=O)[C@H]1[C@H](C)C[C@H]2[C@@H]3C[C@H](F)C4=CC(=O)C=C[C@]4(C)[C@@]3(F)[C@@H](O)C[C@@]21C [PCM-0216248]	2.3
C[C@H]1O[C@@H](O[C@H]2CC[C@@]3(C)[C@@H](CC[C@]4(C)[C@@H]3C=C[C@]35OC[C@@]6(CCC(C)(C)C[C@H]63)[C@@H](O)C[C@]54C)[C@]2(C)CO)[C@H](O)[C@@H](O[C@@H]2O[C@H](CO)[C@@H](O)[C@H](O)[C@H]2O)[C@H]1O [PCM-0216249]	-23.4
O=C(Nc1ncc([N+](=O)[O-])s1)c1ccccc1O [PCM-0216250]	7.7
CS(=O)(=O)Nc1cc2occ(NC=O)c(=O)c2cc1Oc1ccccc1 [PCM-0216251]	6.2
C[C@H](CSC(=O)c1ccccc1)C(=O)N1C[C@@H](Sc2ccccc2)C[C@H]1C(=O)O [PCM-0216252]	-43.2
NCCC[C@H](N)C(=O)O [PCM-0216253]	-3.4
CC1(C)OC[C@@H](COC(=O)CCc2ccc(OC[C@@H](O)CNCCNC(=O)N3CCOCC3)cc2)O1 [PCM-0216254]	-3.1
CCC(=O)O[C@@H]1CC(=O)O[C@H](C)C/C=C/C=C/[C@H](O)[C@H](C)C[C@H](CC=O)[C@H](O[C@@H]2O[C@H](C)[C@@H](O[C@H]3C[C@@](C)(O)[C@@H](OC(=O)CC)[C@H](C)O3)[C@H](N(C)C)[C@H]2O)[C@H]1OC [PCM-0216255]	6.2

Compound	inhibition at 10 µM [%]
CC(C)CCNc1ncccc1C(=O)N1CCN(Cc2ccccc2)CC1 [PCM-0216256]	-30.1
CC1(C)C[C@@H]1C(=O)N/C(=C\CCCCSC[C@H](N)C(=O)O)C(=O)O [PCM-0216257]	-10
CCCCCC1C(=O)CCC1CC(=O)OCCC (stereo not shown) [PCM-0216258]	-0.8
C=CC(=O)Nc1cc(Nc2nccc(-n3cc(CN(C)C)c(-c4ccccc4)n3)n2)c(OC)cc1N1CCOCC1 [PCM-0216259]	11.1
Cc1cc(=O)c(C(=O)N[C@@H](C(=O)N[C@@H]2C(=O)N3C(C(=O)O)=C(CSc4nnnn4C)CS[C@H]23)c2ccc(O)cc2)c[nH]1 [PCM-0216260]	23.2
CC1=C(C/C=C(\C)CCC[C@H](C)CCC[C@H](C)CCCC(C)C)C(=O)c2ccccc2C1=O [PCM-0216261]	7.8
CCOC(=O)c1cc(O)c(O)c(O)c1 [PCM-0216263]	9.3
NCCCC[C@H](NC(=O)[C@@H]1CCCN1C(=O)[C@@H]1CSSC[C@H](N)C(=O)N[C@@H](Cc2ccc(O)cc2)C(=O)N[C@@H](Cc2ccccc2)C(=O)N[C@@H](CCC(N)=O)C(=O)N[C@@H](CC(N)=O)C(=O)N1)C(=O)NCC(N)=O [PCM-0216267]	-19.6
CCNC(=O)[C@@H]1CCCN1C(=O)[C@H](CCCN=C(N)N)NC(=O)[C@H](CC(C)C)NC(=O)[C@@H](C)NC(=O)[C@H](Cc1ccc(O)cc1)NC(=O)[C@H](CO)NC(=O)[C@H](Cc1c[nH]c2ccccc12)NC(=O)[C@H](Cc1cnc[nH]1)NC(=O)C1CCC(=O)N1 (stereo partly shown) [PCM-0216272]	23.8
CC(C)C[C@H](NC(=O)CNC(=O)[C@H](Cc1ccc(O)cc1)NC(=O)[C@H](CO)NC(=O)[C@H](Cc1c[nH]c2ccccc12)NC(=O)[C@H](Cc1cnc[nH]1)NC(=O)[C@@H]1CCC(=O)N1)C(=O)N[C@@H](CCCN=C(N)N)C(=O)N1CCC[C@H]1C(=O)NCC(N)=O [PCM-0216273]	-5.1
NCCCC[C@H](NC(=O)[C@@H]1CCCN1C(=O)[C@@H]1CSSC[C@H](NC(=O)CNC(=O)CNC(=O)CN)C(=O)N[C@@H](Cc2ccc(O)cc2)C(=O)N[C@@H](Cc2ccccc2)C(=O)N[C@@H](CCC(N)=O)C(=O)N[C@@H](CC(N)=O)C(=O)N1)C(=O)NCC(N)=O [PCM-0216274] (H-GGGCYFQNCPKG-NH2; disulfide 4-9)	-3.4
CN1CCc2nc(C(=O)N[C@@H]3C[C@@H](C(=O)N(C)C)CC[C@@H]3NC(=O)C(=O)Nc3ccc(Cl)cn3)sc2C1 [PCM-0216277]	-4.6
Cc1cc(O)cc(O)c1 [PCM-0216278]	3.1
Cc1cc(=O)oc2ccc(O)cc12 [PCM-0216279]	17
CCOC(=O)c1cc2ccccc2oc1=O [PCM-0216280]	-16.2
CCOc1cc(C=O)ccc1OC(C)=O [PCM-0216281]	4.6
COC(=O)[C@H](O)[C@@H](NC(=O)c1ccccc1)c1ccccc1 [PCM-0216282]	-5.4
COC1[C@@H](O)[C@H](O)C(O)[C@H](O)[C@H]1O (stereo partly shown) [PCM-0216283]	11.6
OC[C@@H](O)[C@@H](O)[C@@H](O)[C@@H](O)CO [PCM-0216285]	-17
CCOC(=O)/C=C/c1ccc(OC)cc1 [PCM-0216286]	-3.1
O=C(O)C(=O)O [PCM-0216287]	-10

Compound	inhibition at 10 µM [%]
O=c1ccc2cc(O)ccc2o1 [PCM-0216289]	-10
O=c1ccn([C@@H]2O[C@H](COP(=O)(O)O)[C@@H](O)[C@H]2O)c(=O)[nH]1 [PCM-0216290]	-6.8
Nc1ncnc2c1ncn2[C@@H]1O[C@H](COP(=O)(O)OP(=O)(O)O)[C@@H](O)[C@H]1O [PCM-0216291]	3.1
O=c1[nH]c(=O)c2ncn([C@@H]3O[C@H](CO)[C@@H](O)[C@H]3O)c2[nH]1 [PCM-0216292]	13.1
CC(=O)c1cc(O)ccc1O [PCM-0216293]	-1.5
O=c1cc(-c2ccc(O)cc2)oc2cccc(O)c12 [PCM-0216294]	32.4
CCC/C=C1\OC(=O)C2=C1CCC=C2 [PCM-0216295]	14.7
CC1(C)CC[C@]2(C(=O)O)[C@H](O)C[C@]3(C)C(=CC[C@@H]4[C@@]5(C)C[C@H](O)[C@H](O)[C@@](C)(CO)[C@@H]5CC[C@]43C)[C@@H]2C1 [PCM-0216296]	-10.8
Oc1ccc2c(c1)OC[C@@H]1c3cc4c(cc3O[C@H]21)OCO4 [PCM-0216297]	-20.1
C[C@@H]([C@H](C)O)[C@H](N)C(=O)O [PCM-0216300]	-12.4
O=C(N[C@@H](c1ccccc1)[C@@H](O)C(=O)O)c1ccccc1 [PCM-0216301]	9.3
O=C1O[C@H]2[C@@H]3OC(=O)c4cc(O)c(O)c(O)c4-c4c(cc(O)c(O)c4O)C(=O)OC[C@H]2O[C@@H](OC(=O)c2cc(O)c(O)c(O)c2)[C@@H]3OC(=O)c2cc(O)c(O)c3c2[C@@H]2C1=CC(=O)[C@](O)(O3)C2(O)O [PCM-0216302]	0
C=CC[S@+]([O-])C[C@H](N)C(=O)O [PCM-0216303]	-9.3
CC[C@H]1CN2CC[C@]3(C(=O)Nc4ccccc43)[C@@H]2C[C@@H]1/C(=C\OC)C(=O)OC [PCM-0216305]	3.9
COc1cc(/C=C/C(=O)OC[C@H]2O[C@H](O[C@]3(CO)O[C@H](CO)[C@@H](O)[C@@H]3OC(=O)/C=C/c3cc(OC)c(O)c(OC)c3)[C@H](O)[C@@H](O)[C@@H]2O)cc(OC)c1O [PCM-0216306]	-6.2
COC(=O)C1=CO[C@@H](O[C@@H]2O[C@H](CO)[C@@H](O)[C@H](O)[C@H]2O)[C@@H]2[C@@]3(C)O[C@H]3[C@@H](O)[C@]12O [PCM-0216309]	-0.8
C[C@@H]1[C@H]2c3cc4c(cc3O[C@@]35OCOC3=CC(=O)[C@H](C[C@H]1C)[C@@H]25)OCO4 [PCM-0216310]	33.2
COc1ccc(CCO[C@@H]2O[C@H](CO[C@@H]3OC[C@H](O)[C@H](O)[C@H]3O)[C@@H](OC(=O)/C=C/c3ccc(O)c(OC)c3)[C@H](O[C@@H]3O[C@@H](C)[C@H](O)[C@@H](O)[C@H]3O)[C@H]2O)cc1O [PCM-0216311]	3.9
COc1cc(O)c(C(=O)/C=C/c2ccccc2)c(OC)c1 [PCM-0216315]	6.9
